# According to the supplement of paper PMC10307832:
# Experiments:
# Assay in all cases: relative viability (nuclei count vs DMSO), 5 days (fraction); higher = more cells survive
# Obatoclax + Alpelisib = compound: COC1=CC(c2cc3ccccc3[nH]2)=N/C1=C\c1[nH]c(C)cc1C [Obatoclax] + Cc1nc(NC(=O)N2CCC[C@H]2C(N)=O)sc1-c1ccnc(C(C)(C)C(F)(F)F)c1 [Alpelisib] (partner 2 µM)
# Procedure, shortened: (§1)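 Relative viability is defined as nuclei in treated wells over nuclei in vehicle wells. Duplicate plates were run and medians reported. Lung cancer cell lines in 1536-well plates were dosed by pin tool one day after seeding, with one drug or with a fixed anchor-drug dose plus five library-drug doses (not always all listed) in √10 steps, and nuclei were counted after 5 days.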
# Obatoclax + Foretinib = compound: COC1=CC(c2cc3ccccc3[nH]2)=N/C1=C\c1[nH]c(C)cc1C [Obatoclax] + COc1cc2c(Oc3ccc(NC(=O)C4(C(=O)Nc5ccc(F)cc5)CC4)cc3F)ccnc2cc1OCCCN1CCOCC1 [Foretinib] (partner 0.25 µM)
# Procedure, shortened: as §1
# Bortezomib + Linsitinib = compound: CC(C)C[C@H](NC(=O)[C@H](Cc1ccccc1)NC(=O)c1cnccn1)B(O)O [Bortezomib] + C[C@]1(O)C[C@@H](c2nc(-c3ccc4ccc(-c5ccccc5)nc4c3)c3c(N)nccn32)C1 [Linsitinib] (partner 1 µM)
# Procedure, shortened: as §1
# Bortezomib + Pictilisib = compound: CC(C)C[C@H](NC(=O)[C@H](Cc1ccccc1)NC(=O)c1cnccn1)B(O)O [Bortezomib] + CS(=O)(=O)N1CCN(Cc2cc3nc(-c4cccc5[nH]ncc45)nc(N4CCOCC4)c3s2)CC1 [Pictilisib] (partner 1 µM)
# Procedure, shortened: as §1
Cell Line,relative viability (Obatoclax + Alpelisib; first compound 0.01 µM),relative viability (Obatoclax + Alpelisib; first compound 0.03162 µM),relative viability (Obatoclax + Alpelisib; first compound 0.1 µM),relative viability (Obatoclax + Alpelisib; first compound 0.3162 µM),relative viability (Obatoclax + Alpelisib; first compound 1 µM),relative viability (Obatoclax + Foretinib; first compound 0.01 µM),relative viability (Obatoclax + Foretinib; first compound 0.03162 µM),relative viability (Obatoclax + Foretinib; first compound 0.1 µM),relative viability (Obatoclax + Foretinib; first compound 0.3162 µM),relative viability (Obatoclax + Foretinib; first compound 1 µM),relative viability (Bortezomib + Linsitinib; first compound 0.0002 µM),relative viability (Bortezomib + Linsitinib; first compound 0.000632 µM),relative viability (Bortezomib + Linsitinib; first compound 0.002 µM),relative viability (Bortezomib + Linsitinib; first compound 0.006325 µM),relative viability (Bortezomib + Linsitinib; first compound 0.02 µM),relative viability (Bortezomib + Pictilisib; first compound 0.0002 µM),relative viability (Bortezomib + Pictilisib; first compound 0.000632 µM),relative viability (Bortezomib + Pictilisib; first compound 0.002 µM),relative viability (Bortezomib + Pictilisib; first compound 0.006325 µM),relative viability (Bortezomib + Pictilisib; first compound 0.02 µM)
201T,1,0.983,1.02,1.04,1.08,1.09,1.12,1.1,1.09,0.768,1.04,1.1,0.921,1.08,0.4,0.677,0.707,0.698,0.684,0.541
A549,0.76,0.876,0.748,0.298,0.0816,0.958,0.947,0.979,0.959,0.764,0.667,0.538,0.423,0.122,0.0542,0.507,0.531,0.468,0.049,0.0452
A-427,1.14,1.09,1.13,1.04,1.01,1.16,0.989,1.01,0.972,0.984,1.06,1.03,1.1,1.16,0.285,0.673,0.626,0.771,0.703,0.175
ABC-1,1.04,1.18,1.09,1.19,0.573,1.11,1.15,1.23,1.06,0.975,0.806,0.688,0.308,0.257,0.234,0.285,0.372,0.292,0.24,0.258
BEN,0.963,1,0.904,1.16,0.911,0.864,0.614,,0.631,0.678,0.814,0.927,0.763,0.592,0.173,0.542,0.557,0.531,0.366,0.24
CAL-12T,1.14,1.29,1.01,0.695,0.129,1.11,1.16,1.09,0.343,0.134,0.898,0.852,0.742,0.662,0.165,0.155,0.368,0.427,0.211,0.151
COR-L23,0.765,0.808,0.675,0.209,0.182,0.878,1.05,0.927,0.51,0.323,0.994,0.828,0.495,0.0469,0.0499,0.922,0.777,0.609,0.0347,0.0399
COR-L 105,1.02,1.21,0.944,0.904,0.336,1.01,1.19,1.05,0.534,0.454,0.848,0.99,0.711,0.293,0.282,0.377,0.324,0.389,0.322,0.326
Calu-6,0.899,1.01,0.898,0.677,0.205,0.901,0.739,0.927,0.919,0.321,0.938,0.775,0.961,0.214,0.0654,0.829,0.925,0.726,0.102,0.0777
ChaGo-K-1,,,,,,0.83,0.947,0.913,0.901,1.03,,,,,,,,0.707,0.29,0.207
EBC-1,0.82,0.92,0.902,0.435,0.251,0.102,0.112,0.119,0.119,0.113,0.902,0.801,0.516,0.0706,0.0667,0.415,0.408,0.177,0.0912,0.0987
EKVX,0.941,0.9,1.02,0.853,0.891,0.911,0.76,0.427,0.752,1.09,1.01,0.936,0.915,0.609,0.0808,0.429,0.426,0.463,0.33,0.0746
EMC-BAC-2,0.658,0.797,0.744,0.738,0.696,0.987,1.03,1.08,0.864,0.788,0.828,0.805,0.786,0.46,0.132,0.523,0.504,0.544,0.476,0.158
EPLC-272H,1.08,0.962,0.808,0.906,0.941,0.735,0.577,0.769,0.619,0.499,,,1.26,1.29,0.109,,,0.3,0.242,0.15
H3255,0.611,0.725,0.732,0.631,0.55,0.826,0.802,0.891,1.05,0.996,0.914,1.02,0.705,0.263,0.19,0.58,0.482,0.406,0.192,0.142
HARA,0.942,0.529,0.916,0.802,0.78,0.966,0.93,0.91,0.935,1,0.899,0.836,0.895,0.0675,0.0867,0.479,0.529,0.481,0.0462,0.0659

Cell Line,relative viability (Obatoclax + Alpelisib; first compound 0.01 µM),relative viability (Obatoclax + Alpelisib; first compound 0.03162 µM),relative viability (Obatoclax + Alpelisib; first compound 0.1 µM),relative viability (Obatoclax + Alpelisib; first compound 0.3162 µM),relative viability (Obatoclax + Alpelisib; first compound 1 µM),relative viability (Obatoclax + Foretinib; first compound 0.01 µM),relative viability (Obatoclax + Foretinib; first compound 0.03162 µM),relative viability (Obatoclax + Foretinib; first compound 0.1 µM),relative viability (Obatoclax + Foretinib; first compound 0.3162 µM),relative viability (Obatoclax + Foretinib; first compound 1 µM),relative viability (Bortezomib + Linsitinib; first compound 0.0002 µM),relative viability (Bortezomib + Linsitinib; first compound 0.000632 µM),relative viability (Bortezomib + Linsitinib; first compound 0.002 µM),relative viability (Bortezomib + Linsitinib; first compound 0.006325 µM),relative viability (Bortezomib + Linsitinib; first compound 0.02 µM),relative viability (Bortezomib + Pictilisib; first compound 0.0002 µM),relative viability (Bortezomib + Pictilisib; first compound 0.000632 µM),relative viability (Bortezomib + Pictilisib; first compound 0.002 µM),relative viability (Bortezomib + Pictilisib; first compound 0.006325 µM),relative viability (Bortezomib + Pictilisib; first compound 0.02 µM)
HCC-15,0.844,0.777,0.827,0.856,0.609,1.04,1.05,0.846,0.912,0.857,0.815,0.947,0.91,0.504,0.0972,0.649,0.745,0.733,0.396,0.111
HCC-44,0.84,0.706,0.801,0.607,0.21,,,,,,0.618,0.61,0.515,0.19,0.113,0.581,0.575,0.554,0.464,0.133
HCC-78,0.314,0.35,,0.26,0.321,0.532,0.53,0.608,0.553,0.59,0.509,0.394,0.458,0.128,0.18,0.183,0.23,0.207,0.21,0.193
HCC-366,0.382,0.363,0.366,0.396,0.233,0.932,0.922,0.916,0.549,0.919,0.494,0.574,0.677,0.51,0.0152,0.119,0.12,0.117,0.166,0.0325
HCC-827,0.949,0.931,0.957,0.984,0.964,1.01,1.04,1.08,0.964,1.05,0.913,0.949,0.821,0.896,0.141,0.772,0.956,0.984,0.82,0.235
HOP-62,0.903,0.771,0.951,1.02,1.21,1.16,0.933,1.11,1.04,1.06,1.04,1.02,0.352,0.465,0.052,0.752,0.667,0.748,0.333,0.0568
IA-LM,0.843,0.743,0.612,0.327,0.0686,1.17,1.18,1.03,0.624,0.0739,0.907,0.682,0.577,0.161,0.0151,0.299,0.321,0.278,0.0319,0.0054
LC-2-ad,0.892,0.931,0.884,0.477,0.655,0.997,0.876,0.869,0.897,0.525,0.798,,0.811,0.151,0.127,0.558,,0.486,0.0865,0.104
LCLC-97TM1,0.27,0.232,0.283,0.227,0.293,0.996,0.954,0.873,0.872,0.9,0.187,0.17,0.14,0.146,0.111,0.177,0.178,0.195,0.132,0.207
NCI-H1623,,,,,,0.95,0.81,0.984,0.839,0.896,,,,,,,,,,
NCI-H1650,,,,,,1.12,1.06,1.18,0.91,0.558,,,,,,0.24,0.488,0.17,0.153,0.15
NCI-H1792,0.746,0.658,,0.638,0.781,,,,,,0.526,0.594,0.352,0.537,0.221,0.29,0.21,0.192,0.306,0.175
NCI-H2170,0.777,0.749,0.825,0.724,0.683,1,1.02,0.996,1.02,0.975,,,,,,0.29,0.238,0.329,0.294,0.202
NCI-H2342,,,,,,1.05,0.947,1.09,1.04,1.03,,,,,,,,,,
SW 900,,,,,,0.895,0.743,0.759,0.536,0.738,,,,,,,,,,
